Target: Cathepsin D (Homo sapiens, UniProt P07339)
Test: In Vitro Enzymatic FRET Assay
Experimental: Recombinant Cat D was expressed in CHO cells. The assay buffer for CathepsinD is 0.05 M citrate pH 3.5, 10% DMSO final, 5 mM CHAPS. […] The assays are effectively started by the addition of different FRET substrates (20 nM for Cat D) and the combination is incubated for one hour. The FRET assay is terminated with by addition of Tris buffer, which raises the pH to neutrality, and the fluorescence is determined. The FRET substrate is a peptide with commercially available fluorophore and quencher, on opposite sides of the BACE cleavage site. […] Proteolytic cleavage of the FRET substrate releases quenching of fluorescence (Cat D excitation 500 nm and emission 580 nm).

Cathepsin D, sequence (P07339 65-162 limits assumed): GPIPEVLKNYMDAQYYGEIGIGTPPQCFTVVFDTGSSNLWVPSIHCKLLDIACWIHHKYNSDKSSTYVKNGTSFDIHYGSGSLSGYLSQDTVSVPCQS
Cathepsin D, sequence (P07339 169-412 limits assumed): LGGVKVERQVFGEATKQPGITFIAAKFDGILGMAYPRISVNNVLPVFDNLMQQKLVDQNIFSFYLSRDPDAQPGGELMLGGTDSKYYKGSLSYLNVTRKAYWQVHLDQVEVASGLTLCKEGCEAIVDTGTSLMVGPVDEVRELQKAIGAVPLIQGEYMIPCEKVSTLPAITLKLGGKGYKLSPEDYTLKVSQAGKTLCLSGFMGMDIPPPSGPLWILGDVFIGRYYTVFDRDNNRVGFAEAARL

Row | Compound | IC50 [µM]
1 | COc1cc(Cl)cnc1C(=O)Nc1ccc(F)c([C@@]2(CF)N=C(N)O[C@@H]3C[C@@H]32)c1 [US9611261, Example 297] | 835
2 | NC1=N[C@@](c2cc(NC(=O)c3cnc(CCC#CC4CC4)cn3)ccc2F)(C(F)F)[C@H]2C[C@H]2O1 [US9611261, Example 411] | 360

— BindingDB's records for patent US9611261 (Amgen, 2017)
